Assays:
[1] = tested on: MAP kinases; assay: Measurement of activation of MAP kinases in cultured nerve cells (western immunoblotting); type: cell-based; conditions: fetal rat cerebral cortex nerve cells, compound 500 μg/ml, 30 minutes, relative to control
Description: Activation of MAP kinases was measured on respective compounds in Table 1 including the compound obtained in Production Example with western immunoblotting as follows. Nerve cells were dispersed from a cerebral cortex of a 17-day-old fetal rat and the nerve cells were cultured in a Dulbecco's modified eagle medium (DMEM) containing 5%; fetal bovine serum for 1 day. A culture solution was exchanged to a serum-free medium (B27 supplement added Neurobasal, Invitrogen Corporation), and the nerve cells were cultured in a culture petri dish coated with polyornithine at a density of 20,000 to 40,000 cells/cm^2. Three days later, each of the compounds in Table 1 was added thereto, and culture for 30 minutes was continued. Then, cells were recovered on ice with a solution of a Tris-HCL buffer as a base containing a phosphatase inhibitor. The protein concentration of the obtained cell extraction was determined using a BCA Protein Assay Kit (TAKARABIO INC.), a constant amount (3 μg for MAP kinase measurement, 5 μg for phosphorylated MAP kinase measurement) of the protein was electrophoresed with a polyacrylic amide gel. The protein was transcribed to a PVDF membrane from the gel after electrophoresis, and western immunoblotting was carried out using the primary antibodies: an anti-MAP kinase antibody (Cell Signaling Technology, Inc.) and an antiphosphorylated MAP kinase antibody (Cell Signaling Technology, Inc.), respectively. Subsequently, an enzyme activity was subjected to color development by being reacted with the secondary antibody: an alkaline phosphatase labeled anti-rabbit IgG antibody (Promega KK) to measure MAP kinases and phosphorylated MAP kinases. In addition, each compound was dissolved in 0.7% DMSO and adjusted to have a concentration of 500 μg/ml. A control was added with a phosphoric acid buffer containing 0.1% DMSO in the same amount as the compound.
The above obtained concentration measurement of the electrophoresis gel band was digitalized by calculating an intensity with Image J (BioArts International, Inc.). The numerical value of MAP kinases of each compound was divided by the numerical value of the control's MAP kinases, and the numerical value of phosphorylated MAP kinases of each compound was divided by the numerical value of the control's phosphorylated MAP kinases to find a ratio of the MAP kinases of each compound to the control and a ratio of the phosphorylated MAP kinases of the each compound to the control. Then, the obtained ratio of the phosphorylated MAP kinases to the control was divided by the obtained ratio of the MAP kinases to the control to find a ratio of the phosphorylated MAP kinases to the MAP kinases and graphs were formed and shown in FIGS. 1 to 3. Compound 1, compound 6, compound 11, compound 16, compound 21 and compound 36 in Table 1 were used from products made by Wako Pure Chemical Industries, Ltd.

[2] = tested on: mice under chronic mild stress; assay: Tail suspension test after completion of stress; type: in vivo
Description: A site of 1 cm from the tip of the tail of a mouse was grasped by a hand, being apart from a floor from 10 cm, and an immobility time in suspension for 6 minutes was measured for 2 hours. Since the immobility time prolongs when the mouse has a depressive symptom (condition), a level of the depressive symptom (condition) can be evaluated from the length of the immobility time. FIGS. 6 and 7 show the results.
Example 2 is a behavior test in which the compound 8 was administered to a mouse as well as stress was applied and a suppression effect of the compound 8 on depressive and anxiety symptoms of the mouse was examined. On the other hand, the present example is a behavior test in which only stress was applied for 3 weeks without administering the compound 8 and stress was completed and a therapeutic effect of the compound 8 on depressive and anxiety symptoms of a mouse after removing stress was examined. Stress was applied to a mouse in the same manner as in Example 2. […]

**Q.** For `CCCCCCC/C=C/C(=O)OCC` [Compound 8, trans-2-decenoic acid ethyl ester], which “ratio of phosphorylated MAP kinases to MAP kinases” value [1] is on record?
**A.** twice or more

**Q.** And the “ratio of phosphorylated MAP kinases to MAP kinases” value ([1]; listed as trans-2-decenic acid ethyl ester)?
**A.** 11 times

**Q.** And the “immobility time, stressed vs non-stressed example” value ([2]; 500 μg/kg, 1 week-administration groups after completion of stress)?
**A.** no significant difference

**Q.** What about the “immobility time, stressed vs non-stressed example” value ([2]; all administration examples, 2 week-administration groups after completion of stress) of the same compound?
**A.** no significant difference

Reference: patent US8557864B2, “Agent having neurotrophic factor-like activity” (Nagoya Industrial Science Research Institute, priority 2007, dated 2013)
